The nature of data set [1]: Blood:plasma distribution ratio. The note with it: blood and plasma. The data set is classed as in vitro ADME.
A further data set is described as follows: Solubility in water. The format is physicochemical.

Like-named read-outs stand apart in the source and are kept apart here.

For the compound `C[C@H]1CN(C[C@H](Cc2ccccc2)C(=O)NCC(=O)O)CC[C@@]1(C)c1cccc(O)c1` [Alvimopan, [[2(S)-[[4(R)-(3-hydroxyphenyl)-3(R),4-dimethyl-1-piperidinyl]methyl]-1-oxo-3-phenylpropyl]amino]acetic acid dihydrate], the blood plasma ratio in data set [1] is 0.68. Moreover, the Solubility in water entry is listed as “extremely low solubility in water” in the data set “Solubility in water” (dihydrate) and “low solubility in water except at low or high pH conditions” in “Solubility in water” (listed as compound of formula (II), dihydrate).

Turning to `C[C@H]1CN(C[C@H](Cc2ccccc2)C(=O)O)CC[C@@]1(C)c1cccc(O)c1.O` [active metabolite, (αS,3R,4R)-4-(3-hydroxyphenyl)-3,4-dimethyl-α-(phenylmethyl)-1-piperidinepropanoic acid monohydrate], in “Solubility in water”, the Solubility in water entry is “extremely low solubility in water”.
